Patent US11000033B2, “Ketone or oxime compound, and herbicide” (NISSAN CHEMICAL CORPORATION, priority 2014, dated 2021)

What was measured:
Format in all cases: in vivo
[1] = tested on: directly sowed rice plant; experiment: Test Example 3: effect on crop by foliage application, Wagner pot (symbol b); conditions: application herbicide amount 320 g/ha
Method in brief: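 Steps: fill a 1/10000-are Wagner pot with alluvial soil; add water and mix to submerge at 0.1–0.5 cm depth; sow rice plus Echinochloa crus-galli var. crus-galli, Leptochloa chinensis and Cyperus difformis; grow in a 25–30 °C greenhouse.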

Amaranthus retroflexus = experiment: Test Example 4: herbicidal effect by soil treatment (symbol N); conditions: application herbicide amount 320 g/ha
Method in brief: (§1)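 Seeds were sown in sterilized diluvial soil, covered with about 1.5 cm of soil, and the soil surface was sprayed with a water-diluted emulsion of the compound at a predetermined rate. Plants grew in a greenhouse at 25° C. to 30° C.; effects were scored visually 3 weeks after application.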

Lolium multiflorum Lam. = experiment: Test Example 4: herbicidal effect by soil treatment (symbol K); conditions: application herbicide amount 320 g/ha
Method in brief: as §1

Abutilon theophrasti = experiment: Test Example 5: herbicidal effect by foliage application, plastic box (symbol M); conditions: 320 g/ha, 3 weeks after application
Method in brief: (§2)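 Emulsion formulation, diluted with water to the intended rate, was applied uniformly to leaves by small sprayer. Recipients were 14-day greenhouse-grown seedlings (25° C. to 30° C.). Assessment followed at 3 weeks.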

corn = experiment: Test Example 4: effect on crop by soil treatment (symbol c); conditions: application herbicide amount 320 g/ha
Method in brief: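 Crop seed is sown in spots together with several weed species in a box of sterilized diluvial soil. It is covered by about 1.5 cm of soil and kept in a greenhouse held between 25° C. and 30° C.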

Chenopodium album = experiment: Test Example 5: herbicidal effect by foliage application, plastic box (symbol O); conditions: 320 g/ha, 3 weeks after application
Method in brief: as §2

Setaria viridis = experiment: Test Example 5: herbicidal effect by foliage application, plastic box (symbol G); conditions: 320 g/ha, 3 weeks after application
Method in brief: as §2

Stellaria media = experiment: Test Example 4: herbicidal effect by soil treatment (symbol P); conditions: application herbicide amount 320 g/ha
Method in brief: as §1

wheat = experiment: Test Example 5: effect on crop by foliage application, plastic box (symbol e); conditions: 320 g/ha, 3 weeks after application
Method in brief: (§3)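 A greenhouse held between 25° C. and 30° C. was used to grow plants sown spot-wise, beneath ~1.5 cm of soil, in boxes of sterilized diluvial soil.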

[2] = tested on: Echinochloa crus-galli var. crus-galli; experiment: Test Example 3: herbicidal effect by foliage application, Wagner pot (symbol H); conditions: application herbicide amount 320 g/ha
Method in brief: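 Seeds sown in alluvial soil kept under 0.1–0.5 cm water, greenhouse 25–30 °C; 14 d growth. Leaves treated by small sprayer with water-diluted emulsion at a predetermined rate. Effect graded by set scale, 3 weeks.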

soybean = experiment: Test Example 5: effect on crop by foliage application, plastic box (symbol d); conditions: 320 g/ha, 3 weeks after application
Method in brief: as §3

Veronica persica = experiment: Test Example 5: herbicidal effect by foliage application, plastic box (symbol R); conditions: 320 g/ha, 3 weeks after application
Method in brief: as §2

[3] = tested on: Echinochloa crus-galli var. crus-galli; experiment: Test Example 5: herbicidal effect by foliage application, plastic box (symbol H); conditions: 320 g/ha, 3 weeks after application
Method in brief: as §2

Alopecurus myosuroides = experiment: Test Example 4: herbicidal effect by soil treatment (symbol J); conditions: application herbicide amount 320 g/ha
Method in brief: as §1

Apera spica-venti = experiment: Test Example 4: herbicidal effect by soil treatment (symbol L); conditions: application herbicide amount 320 g/ha
Method in brief: as §1

Monochoria vaginalis = experiment: Test Example 1: herbicidal activity, application before weed generation in submerged conditions (symbol C); conditions: application herbicide amount 320 g/ha
Method in brief: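 Steps: alluvial soil flooded to 4 cm; weed seeds sown together; rice seedlings (2.5 leaf) transplanted; diluted emulsion applied to water surface the same day as sowing; plants grown at 25–30 °C in greenhouse; herbicidal effect rated on a 0–5 scale at 3 weeks.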

| SMILES | M: Abutilon theophrasti, herbicidal effect grade (Abutilon theophrasti) | O: Chenopodium album, herbicidal effect grade (Chenopodium album) | G: Setaria viridis, herbicidal effect grade (Setaria viridis) | e: wheat, effect on crop grade (wheat) | d: soybean, effect on crop grade (soybean) | H: Echinochloa crus-galli var. crus-galli, herbicidal effect grade [3] | effect on crop b (directly sowed rice plant), grade 0-5 [1] | L (Apera spica-venti) herbicidal effect grade (Apera spica-venti) | N (Amaranthus retroflexus) herbicidal effect grade (Amaranthus retroflexus) | K (Lolium multiflorum Lam.) herbicidal effect grade (Lolium multiflorum Lam.) | c (corn) effect on crop grade (corn) | herbicidal effect on H (Echinochloa crus-galli var. crus-galli), grade 0-5 [2] | Herbicidal effect grade, C: Monochoria vaginalis (Monochoria vaginalis) | J (Alopecurus myosuroides) herbicidal effect grade (Alopecurus myosuroides) | further results |
| --- | --- | --- | --- | --- | --- | --- | --- | --- | --- | --- | --- | --- | --- | --- | --- |
| CC(CC1CC(O)=C(c2c(C)cc(Br)cc2C)C1=O)=NOCC(=O)N(C)C (mixture of isomers) [9-029] | 0 (Herbicidal ratio of 5% or lower (almost no effect)) | 0 (Herbicidal ratio of 5% or lower (almost no effect)) | 3 (Herbicidal ratio of 40% or higher and lower than 70%) | 4 (Herbicidal ratio of 70% or higher and lower than 90%) | 0 (Herbicidal ratio of 5% or lower (almost no effect)) | 3 (Herbicidal ratio of 40% or higher and lower than 70%) | – | – | – | – | – | – | – | – | b (directly sowed rice plant) effect on crop grade ([1]; Table 24): 3 (Herbicidal ratio of 40% or higher and lower than 70%); Herbicidal effect grade, N: Amaranthus retroflexus (Amaranthus retroflexus): 0 (Herbicidal ratio of 5% or lower (almost no effect)); Herbicidal effect grade, K: Lolium multiflorum Lam. (Lolium multiflorum Lam.): 4 (Herbicidal ratio of 70% or higher and lower than 90%); Effect on crop grade, c: corn (corn): 0 (Herbicidal ratio of 5% or lower (almost no effect)); Herbicidal effect grade, P: Stellaria media (Stellaria media): 0 (Herbicidal ratio of 5% or lower (almost no effect)); H (Echinochloa crus-galli var. crus-galli) herbicidal effect grade ([2]; Table 24): 4 (Herbicidal ratio of 70% or higher and lower than 90%); R: Veronica persica, herbicidal effect grade (Veronica persica): 0 (Herbicidal ratio of 5% or lower (almost no effect)); Herbicidal effect grade, J: Alopecurus myosuroides (Alopecurus myosuroides): 3 (Herbicidal ratio of 40% or higher and lower than 70%) |
| CC(CC1CC(O)=C(c2c(C)cc(C)cc2C)C1=O)=NOCC1CC1 (stereo not shown) [1-024] | 1 (Herbicidal ratio of 5% or higher and lower than 20%) | 1 (Herbicidal ratio of 5% or higher and lower than 20%) | 5 (Herbicidal ratio of 90% or more (almost completely withered)) | 5 (Herbicidal ratio of 90% or more (almost completely withered)) | 2 (Herbicidal ratio of 20% or higher and lower than 40%) | 5 (Herbicidal ratio of 90% or more (almost completely withered)) | 5 (Herbicidal ratio of 90% or more (almost completely withered)) | 5 (Herbicidal ratio of 90% or more (almost completely withered)) | 4 (Herbicidal ratio of 70% or higher and lower than 90%) | 5 (Herbicidal ratio of 90% or more (almost completely withered)) | 1 (Herbicidal ratio of 5% or higher and lower than 20%) | 5 (Herbicidal ratio of 90% or more (almost completely withered)) | 2 (Herbicidal ratio of 20% or higher and lower than 40%) | 5 (Herbicidal ratio of 90% or more (almost completely withered)) | – |
| CC(CC1CC(O)=C(c2c(C)cc(C)cc2C)C1=O)=NOCc1ccccc1F (stereo not shown) [1-026] | 0 (Herbicidal ratio of 5% or lower (almost no effect)) | 3 (Herbicidal ratio of 40% or higher and lower than 70%) | 5 (Herbicidal ratio of 90% or more (almost completely withered)) | 2 (Herbicidal ratio of 20% or higher and lower than 40%) | 0 (Herbicidal ratio of 5% or lower (almost no effect)) | 4 (Herbicidal ratio of 70% or higher and lower than 90%) | 5 (Herbicidal ratio of 90% or more (almost completely withered)) | 5 (Herbicidal ratio of 90% or more (almost completely withered)) | 0 (Herbicidal ratio of 5% or lower (almost no effect)) | 5 (Herbicidal ratio of 90% or more (almost completely withered)) | 0 (Herbicidal ratio of 5% or lower (almost no effect)) | 5 (Herbicidal ratio of 90% or more (almost completely withered)) | 5 (Herbicidal ratio of 90% or more (almost completely withered)) | 5 (Herbicidal ratio of 90% or more (almost completely withered)) | – |
| CC(CC1CC(O)=C(c2c(C)cc(C)cc2C)C1=O)=NOCC(C)O (stereo not shown) [1-027] | 2 (Herbicidal ratio of 20% or higher and lower than 40%) | 1 (Herbicidal ratio of 5% or higher and lower than 20%) | 5 (Herbicidal ratio of 90% or more (almost completely withered)) | 4 (Herbicidal ratio of 70% or higher and lower than 90%) | 3 (Herbicidal ratio of 40% or higher and lower than 70%) | 5 (Herbicidal ratio of 90% or more (almost completely withered)) | 5 (Herbicidal ratio of 90% or more (almost completely withered)) | 5 (Herbicidal ratio of 90% or more (almost completely withered)) | 0 (Herbicidal ratio of 5% or lower (almost no effect)) | 5 (Herbicidal ratio of 90% or more (almost completely withered)) | 4 (Herbicidal ratio of 70% or higher and lower than 90%) | 5 (Herbicidal ratio of 90% or more (almost completely withered)) | 3 (Herbicidal ratio of 40% or higher and lower than 70%) | 5 (Herbicidal ratio of 90% or more (almost completely withered)) | – |
| CON=C(C)CC1CC(OC(=O)CCC2CCCCC2)=C(c2c(C)cc(C)cc2C)C1=O (stereo not shown) [1-035] | 4 (Herbicidal ratio of 70% or higher and lower than 90%) | – | 5 (Herbicidal ratio of 90% or more (almost completely withered)) | 5 (Herbicidal ratio of 90% or more (almost completely withered)) | 4 (Herbicidal ratio of 70% or higher and lower than 90%) | 5 (Herbicidal ratio of 90% or more (almost completely withered)) | 5 (Herbicidal ratio of 90% or more (almost completely withered)) | 5 (Herbicidal ratio of 90% or more (almost completely withered)) | 5 (Herbicidal ratio of 90% or more (almost completely withered)) | 5 (Herbicidal ratio of 90% or more (almost completely withered)) | 4 (Herbicidal ratio of 70% or higher and lower than 90%) | 5 (Herbicidal ratio of 90% or more (almost completely withered)) | 2 (Herbicidal ratio of 20% or higher and lower than 40%) | 5 (Herbicidal ratio of 90% or more (almost completely withered)) | – |
| CON=C(C)CC1CC(OC(=O)C(C)(C)F)=C(c2c(C)cc(C)cc2C)C1=O (stereo not shown) [1-039] | 4 (Herbicidal ratio of 70% or higher and lower than 90%) | – | 5 (Herbicidal ratio of 90% or more (almost completely withered)) | 5 (Herbicidal ratio of 90% or more (almost completely withered)) | 4 (Herbicidal ratio of 70% or higher and lower than 90%) | 5 (Herbicidal ratio of 90% or more (almost completely withered)) | 5 (Herbicidal ratio of 90% or more (almost completely withered)) | 5 (Herbicidal ratio of 90% or more (almost completely withered)) | 5 (Herbicidal ratio of 90% or more (almost completely withered)) | 5 (Herbicidal ratio of 90% or more (almost completely withered)) | 4 (Herbicidal ratio of 70% or higher and lower than 90%) | 5 (Herbicidal ratio of 90% or more (almost completely withered)) | 2 (Herbicidal ratio of 20% or higher and lower than 40%) | 5 (Herbicidal ratio of 90% or more (almost completely withered)) | – |
